Consider 41 molecules from patent US11591336B2 (Relay Therapeutics, Inc., priority 2017, dated 2023).

Structures are written as SMILES. Structures can show the parent of a compound that is named as a salt.

SHP2, sequence (Q06124 whole entry): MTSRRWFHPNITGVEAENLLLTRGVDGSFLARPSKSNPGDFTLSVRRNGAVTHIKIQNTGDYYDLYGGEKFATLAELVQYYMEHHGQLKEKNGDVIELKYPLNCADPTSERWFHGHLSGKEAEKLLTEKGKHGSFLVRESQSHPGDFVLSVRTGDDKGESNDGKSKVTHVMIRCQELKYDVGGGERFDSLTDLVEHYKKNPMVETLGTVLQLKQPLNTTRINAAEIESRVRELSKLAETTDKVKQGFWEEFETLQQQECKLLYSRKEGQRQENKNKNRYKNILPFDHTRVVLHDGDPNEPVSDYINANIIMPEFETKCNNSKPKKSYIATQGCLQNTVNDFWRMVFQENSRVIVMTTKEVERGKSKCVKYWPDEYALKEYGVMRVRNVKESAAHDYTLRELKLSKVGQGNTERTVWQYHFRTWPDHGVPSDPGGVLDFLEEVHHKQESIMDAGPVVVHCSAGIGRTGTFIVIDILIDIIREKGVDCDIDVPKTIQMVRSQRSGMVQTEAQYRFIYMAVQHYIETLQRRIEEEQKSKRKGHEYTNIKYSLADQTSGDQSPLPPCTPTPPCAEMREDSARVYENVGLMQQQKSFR

This experiment has as its target SHP2 (Homo sapiens (Human), UniProt Q06124). Kind of experiment: SHP2 Allosteric Inhibition Assay (DiFMUP prompt fluorescence). In kind it is biochemical. Particulars: 0.25 nM SHP2 activated with 0.5 μM peptide IRS1_pY1172(dPEG8)pY1222; substrate DiFMUP 100 μM; 25° C.
For `CC(C)C1CCN(c2n[nH]c3nc(N4CCC(C)(CN)CC4)cnc23)c2ccccc21` (centres unmarked) [Compound 89], the IC50 was less than 1000 nM.

With `CNc1nccc(Sc2n[nH]c3nc(N4CCC(C)(N)CC4)cnc23)c1Cl` [Compound 497, 4-((6-(4-amino-4-methylpiperidin-1-yl)-1H-pyrazolo[3,4-b]pyrazin-3-yl)thio)-3-chloro-N-methylpyridin-2-amine hydrochloride], the IC50 is less than 1000 nM.

Regarding `NC1=NC2(CCN(c3cnc4c(N5CCCc6ncccc65)n[nH]c4n3)CC2)CO1` [Compound 216, 8-(3-(3,4-dihydro-1,5-naphthyridin-1(2H)-yl)-1H-pyrazolo[3,4-b]pyrazin-6-yl)-3-oxa-1,8-diazaspiro[4.5]dec-1-en-2-amine hydrochloride], the 50% inhibitory concentration (IC50) is less than 1000 nM.

For `C[C@@H]1OCC2(CCN(c3cnc4c(N5CCCc6nc(C7=CCCCC7)ccc65)n[nH]c4n3)CC2)[C@@H]1N` [Compound 396, (3S,4S)-8-{3-[6-(cyclohex-1-en-1-yl)-1,2,3,4-tetrahydro-1,5-naphthyridin-1-yl]-1H-pyrazolo[3,4-b]pyrazin-6-yl}-3-methyl-2-oxa-8-azaspiro[4.5]decan-4-amine hydrochloride], the half-inhibitory concentration (IC50) is less than 1000 nM.

For the molecule `C[C@@H]1OCC2(CCN(c3cnc4c(N5CCCc6c(CO)cccc65)n[nH]c4n3)CC2)[C@@H]1N` [Compound 431, (1-{6-[(3S,4S)-4-amino-3-methyl-2-oxa-8-azaspiro[4.5]decan-8-yl]-1H-pyrazolo[3,4-b]pyrazin-3-yl}-1,2,3,4-tetrahydroquinolin-5-yl)methanol], the half-maximal inhibitory concentration (IC50) was less than 1000 nM.

On to `CC1(CN)CCN(c2cnc3c(N4CCCc5c(Cl)cccc54)n[nH]c3n2)CC1` [Compound 130], for which the IC50 was less than 1000 nM.

In the case of `NC1=NCCC12CCN(c1cnc3c(N4CCCc5ncccc54)n[nH]c3n1)CC2` [Compound 202, 8-(3-(3,4-dihydro-1,5-naphthyridin-1(2H)-yl)-1H-pyrazolo[3,4-b]pyrazin-6-yl)-2,8-diazaspiro[4.5]dec-1-en-1-amine dihydrochloride], the IC50 is less than 1000 nM.

With `NCC1(CN)CCN(c2cnc3c(N4CCCc5ncccc54)n[nH]c3n2)CC1` [Compound 177, 1-[4-(aminomethyl)-1-[3-(1,2,3,4-tetrahydro-1,5-naphthyridin-1-yl)-1H-pyrazolo[3,4-b]pyrazin-6-yl]piperidin-4-yl]methanamine dihydrochloride], the IC50 was less than 1000 nM.

`NC1CCOC12CCN(c1cnc3c(N4CCCc5ncccc54)n[nH]c3n1)CC2` (centres unmarked) [Compound 55, 8-(3-(3,4-dihydro-1,5-naphthyridin-1(2H)-yl)-1H-pyrazolo[3,4-b]pyrazin-6-yl)-1-oxa-8-azaspiro[4.5]decan-4-amine] had an IC50 of less than 1000 nM.

As for `NC1CCCC12CCN(c1cnc3c(Sc4cccnc4C(F)(F)F)n[nH]c3n1)CC2` (stereo in doubt) [Compound 476, (S)-8-(3-((2-(trifluoromethyl)pyridin-3-yl)thio)-1H-pyrazolo[3,4-b]pyrazin-6-yl)8-azaspiro[4.5]decan-1-amine], the half-inhibitory concentration (IC50) is less than 1000 nM.

`Cc1nc(-c2ccc3c(n2)CCCN3c2n[nH]c3nc(N4CCC5(CC4)CO[C@@H](C)[C@H]5N)cnc23)no1` [Compound 319, (3S,4S)-3-methyl-8-(3-[6-(5-methyl-1,2,4-oxadiazol-3-yl)-1,2,3,4-tetrahydro-1,5-naphthyridin-1-yl]-1H-pyrazolo[3,4-b]pyrazin-6-yl)-2-oxa-8-azaspiro[4.5]decan-4-amine; formic acid]: the IC50 is less than 1000 nM.

For the molecule `C[C@@H]1OCC2(CCN(c3cnc4c(N5CCCc6c5ccc(C#N)c6-c5cnn(C)c5)n[nH]c4n3)CC2)[C@@H]1N` [Compound 210], the IC50 lay within 1000 to 10000 nM.

For `CC1(CN)CCN(c2cnc3c(N4CCCc5nc(C(N)=O)ccc54)n[nH]c3n2)CC1` [Compound 175, 5-(6-(4-(aminomethyl)-4-methylpiperidin-1-yl)-1H-pyrazolo[3,4-b]pyrazin-3-yl)-5,6,7,8-tetrahydro-1,5-naphthyridine-2-carboxamide], the half-maximal inhibitory concentration (IC50) is less than 1000 nM.

Consider `CC1(N)CCN(c2cnc3c(Nc4cccnc4Cl)n[nH]c3n2)CC1` [Compound 12, 6-(4-amino-4-methylpiperidin-1-yl)-N-(2-chloropyridin-3-yl)-1H-pyrazolo[3,4-b]pyrazin-3-amine], for which the concentration for half-maximal inhibition (IC50) lay within 1000 to 10000 nM.

On to `C[C@@H]1Cc2ccccc2N1c1n[nH]c2nc(N3CCC(C)(CN)CC3)cnc12` [Compound 135], for which the IC50 is less than 1000 nM.

In the case of `NC(=O)C1CCN(c2cnc3c(N4CCCc5ncccc54)n[nH]c3n2)CC1` [Compound 157], the concentration for half-maximal inhibition (IC50) was 1000 to 10000 nM.

`C[C@@H]1C[C@@H](N)CCN1c1cnc2c(N3CCCc4ncccc43)n[nH]c2n1` (stereo in doubt) [Compound 24, rel-(2R,4S)-1-(3-(3,4-Dihydro-1,5-naphthyridin-1(2H)-yl)-1H-pyrazolo[3,4-b]pyrazin-6-yl)-2-methylpiperidin-4-amine] gave a 50% inhibitory concentration (IC50) of less than 1000 nM.

On to `CC1(N)CCN(c2cnc3c(N4CCc5ccccc54)n[nH]c3n2)CC1` [Compound 21], for which the IC50 was less than 1000 nM.

Consider `CC1(CN)CCN(c2cnc3c(N4CCCc5cccnc54)n[nH]c3n2)CC1` [Compound 40], for which the half-inhibitory concentration (IC50) fell in the range of 1000 to 10000 nM.

As for `Cc1nnc(-c2ccc3c(n2)CCCN3c2n[nH]c3nc(N4CCC5(CC4)CO[C@@H](C)[C@H]5N)cnc23)s1` [Compound 407], the IC50 is less than 1000 nM.

In the case of `CC1(C)CCN(c2cnc3c(N4CCCc5ncccc54)n[nH]c3n2)CC1` [Compound 141], the half-inhibitory concentration (IC50) was not below 10000 nM.

`Cn1nc(Oc2ccnc(Cl)c2Cl)c2ncc(N3CCC(C)(CN)CC3)nc21` [Compound 501, (1-(3-((2,3-dichloropyridin-4-yl)oxy)-1-methyl-1H-pyrazolo[3,4-b]pyrazin-6-yl)-4-methylpiperidin-4-yl)methanamine] gave an IC50 not below 10000 nM.

For the molecule `C[C@@H]1OCC2(CCN(c3cnc4c(N5CCN(CCF)c6cc(C#N)ccc65)n[nH]c4n3)CC2)[C@@H]1N` [Compound 529], the IC50 is less than 1000 nM.

`C[C@@H]1OCC2(CCN(c3cnc4c(N5CCCc6nc(-c7ncon7)ccc65)n[nH]c4n3)CC2)[C@@H]1N` [Compound 246, (3S,4S)-8-(3-(6-(1,2,4-oxadiazol-3-yl)-3,4-dihydro-1,5-naphthyridin-1(2H)-yl)-1H-pyrazolo[3,4-b]pyrazin-6-yl)-3-methyl-2-oxa-8-azaspiro[4.5]decan-4-amine] came in with an IC50 of less than 1000 nM.

In turn, `CC(C)N1CCN(c2n[nH]c3nc(N4CCC5(CC4)CO[C@@H](C)[C@H]5N)cnc23)c2cccnc21` [Compound 387] registered a half-inhibitory concentration (IC50) of less than 1000 nM.

For `C[C@@H]1OCC2(CCN(c3cnc4c(N5CCc6ccc(C#N)cc6C5)n[nH]c4n3)CC2)[C@@H]1N` [Compound 286], the half-maximal inhibitory concentration (IC50) is less than 1000 nM.

For the molecule `c1ccc(OC2CCCN(c3cnc4c(N5CCCc6ncccc65)n[nH]c4n3)C2)cc1` (centres unmarked) [Compound 142], the IC50 was not below 10000 nM.

In turn, `CC1(CN)CCN(c2cnc3c(Sc4ccc5cccnc5c4Cl)n[nH]c3n2)CC1` [Compound 516, (1-(3-((8-chloroquinolin-7-yl)thio)-1H-pyrazolo[3,4-b]pyrazin-6-yl)-4-methylpiperidin-4-yl)methanamine] gave an IC50 of less than 1000 nM.

As to `CC1(CN)CCN(c2cnc3c(N4CCCc5ccccc54)n[nH]c3n2)CC1` [Compound 33, (1-(3-(3,4-dihydroquinolin-1(2H)-yl)-1H-pyrazolo[3,4-b]pyrazin-6-yl)-4-methylpiperidin-4-yl)methanamine], the IC50 was less than 1000 nM.

Regarding `CC1(CN)CCN(c2cnc3c(Sc4ccccc4Cl)n[nH]c3n2)CC1` [Compound 9, (1-(3-((2-chlorophenyl)thio)-1H-pyrazolo[3,4-b]pyrazin-6-yl)-4-methylpiperidin-4-yl)methanamine], the IC50 was less than 1000 nM.

As to `C[C@H]1C[C@H](N)CCN1c1cnc2c(N3CCCc4ncccc43)n[nH]c2n1` (stereo in doubt) [Compound 25, rel-(2S,4R)-1-(3-(3,4-dihydro-1,5-naphthyridin-1(2H)-yl)-1H-pyrazolo[3,4-b]pyrazin-6-yl)-2-methylpiperidin-4-amine], the half-inhibitory concentration (IC50) was less than 1000 nM.

For `CCN1CCN(c2n[nH]c3nc(N4CCC5(CC4)CO[C@@H](C)[C@H]5N)cnc23)c2ccc(C#N)cc21` [Compound 405], the half-maximal inhibitory concentration (IC50) is less than 1000 nM.

The molecule `C[C@@H]1OCC2(CCN(c3cnc4c(N5CCCc6ccccc65)n[nH]c4n3)CC2)[C@@H]1N` [Compound 355] returned a 50% inhibitory concentration (IC50) of less than 1000 nM.

In turn, `C[C@@H]1OCC2(CCN(c3cnc4c(N5CCCc6c5cccc6S(=O)(=O)C5CC5)n[nH]c4n3)CC2)[C@@H]1N` [Compound 457] gave an IC50 of less than 1000 nM.

Molecule `C[C@@H]1OCC2(CCN(c3cnc4c(N5CCCc6nc(-n7cncn7)ccc65)n[nH]c4n3)CC2)[C@@H]1N` [Compound 279] showed a half-inhibitory concentration (IC50) of less than 1000 nM.

In turn, `CC1(N)CCN(c2cnc3c(N4CCC(=O)c5ccccc54)n[nH]c3n2)CC1` [Compound 32] returned an IC50 of less than 1000 nM.

On to `C[C@@H]1OCC2(CCN(c3cnc4c(N5CCCc6c5cccc6[N+](=O)[O-])n[nH]c4n3)CC2)[C@@H]1N` [Compound 373], for which the IC50 is less than 1000 nM.

In turn, `C[C@@H]1OCC2(CCN(c3cnc4c(N5CCCc6c(-c7ncon7)cccc65)n[nH]c4n3)CC2)[C@@H]1N` [Compound 433, (3S,4S)-3-methyl-8-{3-[5-(1,2,4-oxadiazol-3-yl)-1,2,3,4-tetrahydroquinolin-1-yl]-1H-pyrazolo[3,4-b]pyrazin-6-yl}-2-oxa-8-azaspiro[4.5]decan-4-amine] returned an IC50 of less than 1000 nM.

For `C[C@@H]1OCC2(CCN(c3cnc4c(N5CCCc6c(CN7CCOCC7)cccc65)n[nH]c4n3)CC2)[C@@H]1N` [Compound 458], the half-inhibitory concentration (IC50) is less than 1000 nM.

`CN1CCN(c2n[nH]c3nc(N4CCC(C)(CN)CC4)cnc23)c2cccnc21` [Compound 186] came in with an IC50 of less than 1000 nM.

Molecule `O=C1NC2(CCN(c3cnc4c(N5CCCc6ncccc65)n[nH]c4n3)CC2)CO1` [Compound 215] gave an IC50 of 1000 to 10000 nM.

As usually defined, the IC50 is the concentration at which inhibition is half-maximal. Higher therefore signals lower potency.
